According to patent US8541420B2, “Ketolide compounds having antimicrobial activity” (priority 2009, dated 2013):

Tests used:
[1] = test system: S. pyogenes; assay: MIC by standard CLSI agar dilution method, macrolide sensitive and resistant S. pyogenes; assay type: cell-based; parameters: MIC S. pyogenes Ery Susc. (801) / MIC S. pyogenes HLermB (3530): unit not given beside the values; details: 18 hrs at 37° C.; for MIC S. pyogenes Ery Susc. (801): strain Ery Susc. (801); for MIC S. pyogenes HLermB (3530): strain HLermB (3530), HL is High level resistance; for MIC S. pyogenes ermTR (810/806): strain ermTR (810/806); for MIC S. pyogenes mefA (806/763): strain mefA (806/763)
Experimental: (§1) The antibacterial activities of ketolide compounds of invention were evaluated by determining the minimal inhibitory concentration (MIC) according to standard CLSI agar dilution method. The media used for preculture and main culture were Tryptic Soya broth (Difco) and Mueller Hinton medium (Difco), respectively. The Mueller Hinton agar was supplemented with 5% sheep blood for streptococci and pneumococci, and with haemoglobin as well as NAD (nicotinamide adenine dinucleotide) for Haemophilus influenzae, respectively. Overnight cultures were diluted with buffered saline (pH 7.2) to the final cell density of 5×10^6-10^7 CFU/ml, and each bacterial suspension was applied with a replicator (Denley's multipoint inoculator, UK) onto a series of Mueller-Hinton agar plates containing antibacterial agents at various concentrations. Final inoculum was approximately 10^4 CFU/spot. The plates were incubated for 18 hrs at 37° C. The MIC was defined as the lowest concentration of an antibacterial agent that inhibits the development of visible microbial growth on agar.

[2] = test system: S. pneumoniae; assay: MIC by standard CLSI agar dilution method, macrolide sensitive and resistant S. pneumoniae; assay type: cell-based; details: 18 hrs at 37° C.; for MIC S. pneumoniae Ery Susc. (49619): strain Ery Susc. (49619); for MIC S. pneumoniae HL-ermB (3773): strain HL-ermB (3773), HL is High level resistance; for MIC S. pneumoniae ermB (786): strain ermB (786); for MIC S. pneumoniae mefA (772): strain mefA (772)
Experimental: as §1

Molecule | MIC S. pyogenes Ery Susc. (801) [1] | MIC S. pyogenes HLermB (3530) [1] | MIC S. pyogenes ermTR (810/806) [1] | MIC S. pyogenes mefA (806/763) [1] | MIC S. pneumoniae Ery Susc. (49619) [2] | MIC S. pneumoniae HL-ermB (3773) [2] | MIC S. pneumoniae ermB (786) [2] | MIC S. pneumoniae mefA (772) [2]
CC[C@H]1OC(=O)[C@H](C)C(=O)[C@H](C)[C@@H](O[C@@H]2O[C@H](C)C[C@H](N(C)C)[C@H]2O)[C@](C)(OC)C[C@@H](C)C(=O)[C@H](C)[C@H]2N(CCCCn3cnc(-c4cccnc4)c3)C(=O)O[C@]12C [Telithromycin, reference compound] | 0.03 | 16.0 | 0.03 | 0.06 | 0.007 | 4.0 | 0.5 | 1.0
(11S,21R)-3-Decladinosyl-11,12-dideoxy-6-O-methyl-3-oxo-12,11-{oxycarbonyl-[E-amino-(2-(pyrimidin-2-yl)-1,3,4-thiadiazol-5-yl-methyl)oxy-imino-methylene]}-erythromycin A [Example 2] | 0.007 | 0.25 | 0.015 | 0.06 | 0.007 | 1.0 | 0.06 | 0.25
(11S, 21R)-3-Decladinosyl-11,12-dideoxy-6-O-methyl-3-oxo-12,11-{oxycarbonyl-[E-amino-(2-(pyridin-2-yl)-1,3,4-thiadiazol-5-yl-methyl)oxy-imino-methylene]}-erythromycin A [Example 1] | 0.015 | 0.5 | 0.015 | 0.06 | 0.007 | 1.0 | 0.06 | 0.06
